Results from US8586550B2, “Thiazole derivatives as SGLT2 inhibitors and pharmaceutical composition comprising same” (Green Cross Corporation, priority 2010, dated 2013).

The molecules below were run against T1, Human SGLT2 (hSGLT2) (Homo sapiens, UniProt P31639) (assay: Sodium-dependent glucose transport (14C-AMG uptake) assay in CHO cells stably expressing hSGLT2). Conditions: CHO cells expressing hSGLT2, 14C-AMG uptake, 37° C. for 2 h; single determinations; read-out: hSGLT2 Inhibitory Activity IC50.
T1 construct: expressed in transfected cells
T1 sequence (P31639 1-672): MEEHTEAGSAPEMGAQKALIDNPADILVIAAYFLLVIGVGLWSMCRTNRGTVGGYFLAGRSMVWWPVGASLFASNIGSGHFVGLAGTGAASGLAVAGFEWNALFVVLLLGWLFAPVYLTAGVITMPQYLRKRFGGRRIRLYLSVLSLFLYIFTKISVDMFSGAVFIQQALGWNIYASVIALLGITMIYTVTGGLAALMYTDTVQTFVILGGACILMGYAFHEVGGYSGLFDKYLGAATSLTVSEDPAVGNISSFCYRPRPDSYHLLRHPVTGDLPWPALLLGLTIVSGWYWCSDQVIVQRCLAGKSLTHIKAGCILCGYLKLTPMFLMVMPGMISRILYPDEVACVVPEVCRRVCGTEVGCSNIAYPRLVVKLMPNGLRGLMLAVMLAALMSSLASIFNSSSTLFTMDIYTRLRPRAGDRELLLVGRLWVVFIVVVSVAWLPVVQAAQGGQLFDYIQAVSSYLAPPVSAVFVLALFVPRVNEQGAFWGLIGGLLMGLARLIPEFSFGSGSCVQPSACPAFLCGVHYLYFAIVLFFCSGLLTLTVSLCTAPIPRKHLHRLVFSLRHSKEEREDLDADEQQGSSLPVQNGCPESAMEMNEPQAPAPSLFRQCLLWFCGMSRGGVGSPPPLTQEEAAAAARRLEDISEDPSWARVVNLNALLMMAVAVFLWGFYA
Type: cell-based
Procedure, shortened: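 Uptake of 14C-α-methyl-D-glucopyranoside (8 μM labeled, 1 mM unlabeled, NaCl buffer pH 7.4) measured over 2 h at 37 °C with inhibitor in hSGLT2-transfected CHO cells after 10 min choline-buffer pretreatment. Radioactivity by liquid scintillation; IC50 from nonlinear regression.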

Compound | IC50
CCOC(=O)c1cnc(Cc2cc([C@@H]3O[C@H](CO)[C@@H](O)[C@H](O)[C@H]3O)ccc2Cl)s1 [Example 106, Ethyl 2-(2-chloro-5-((2S,3R,4R,5S,6R)-3,4,5-trihydroxy-6-(hydroxymethyl)-tetrahydro-2H-pyran-2-yl)benzyl)thiazole-5-carboxylate] | 0.0503 µM
OC[C@H]1O[C@@H](c2ccc(Cl)c(Cc3ncc(-c4nncs4)s3)c2)[C@H](O)[C@@H](O)[C@@H]1O [Example 107, (2S,3R,4R,5S,6R)-2-(3-((5-(1,3,4-Thiadiazol-2-yl)thiazol-2-yl)methyl)-4-chlorophenyl)-6-(hydroxymethyl)-tetrahydro-2H-pyran-3,4,5-triol] | 0.014 µM
N#Cc1ccc([C@@H]2O[C@H](CO)[C@@H](O)[C@H](O)[C@H]2O)cc1Cc1ncc(-c2ccco2)s1 [Example 108, 2-((5-(Furan-2-yl)thiazol-2-yl)methyl)-4-((2S,3R,4R,5S,6R)-3,4,5-trihydroxy-6-(hydroxymethyl)-tetrahydro-2H-pyran-2-yl)benzonitrile] | 0.0367 µM
OC[C@H]1O[C@@H](c2ccc(C3CC3)c(Cc3ncc(-c4ccco4)s3)c2)[C@H](O)[C@@H](O)[C@@H]1O [Example 110, (2S,3R,4R,5S,6R)-2-(4-Cyclopropyl-3-((5-(furan-2-yl)thiazol-2-yl)methyl)phenyl)-6-(hydroxymethyl)-tetrahydro-2H-pyran-3,4,5-triol] | 0.0548 µM
COCCOc1cc(Cl)c(Cc2ncc(-c3ccco3)s2)cc1[C@@H]1O[C@H](CO)[C@@H](O)[C@H](O)[C@H]1O [Example 117, (2S,3R,4R,5S,6R)-2-(4-Chloro-5-((5-(furan-2-yl)thiazol-2-yl)methyl)-2-(2-methoxyethoxy)phenyl)-6-(hydroxymethyl)-tetrahydro-2H-pyran-3,4,5-triol] | 0.00555 µM
OCCOc1cc(Cl)c(Cc2ncc(-c3ccco3)s2)cc1[C@@H]1O[C@H](CO)[C@@H](O)[C@H](O)[C@H]1O [Example 121, (2S,3R,4R,5S,6R)-2-(4-Chloro-5-((5-(furan-2-yl)thiazol-2-yl)methyl)-2-(2-hydroxyethoxy)phenyl)-6-(hydroxymethyl)tetrahydro-2H-pyran-3,4,5-triol] | 0.00151 µM
OC[C@H]1O[C@@H](c2cc(Cc3ncc(-c4ccco4)s3)c(Cl)cc2OCCn2cncn2)[C@H](O)[C@@H](O)[C@@H]1O [Example 122, (2S,3R,4R,5S,6R)-2-(2-(2-(1H-1,2,4-Triazol-1-yl)ethoxy)-4-chloro-5-((5-(furan-2-yl)thiazol-2-yl)methyl)phenyl)-6-(hydroxymethyl)-tetrahydro-2H-pyran-3,4,5-triol] | 0.131 µM
OC[C@H]1O[C@]2(OCc3cc(Cl)c(C4(c5ncc(-c6cccs6)s5)CC4)cc32)[C@H](O)[C@@H](O)[C@@H]1O [Example 129, (1S,3′R,4′S,5′S,6′R)-5-Chloro-6′-(hydroxymethyl)-6-(1-(5-(thiophen-2-yl)thiazole-2-yl)cyclopropyl)-3′,4′,5′,6′-tetrahydro-3H-spiro[isobenzofuran-1,2′-pyran]-3′,4′,5′-triol] | 0.16 µM
Cc1cnc(Cc2cn([C@@H]3O[C@H](CO)[C@@H](O)[C@H](O)[C@H]3O)c3ccccc23)s1 [Example 132, (2R,3S,4S,5R,6R)-2-(Hydroxymethyl)-6-(3-((5-methylthiazol-2-yl)methyl)-1H-indol-1-yl)tetrahydro-2H-pyran-3,4,5-triol] | 0.162 µM

Second part, the molecule after the results:

IC50 | Compound
0.243 µM | CCc1cnc(Cc2cc([C@@H]3O[C@H](CO)[C@@H](O)[C@H](O)[C@H]3O)cc3ccccc23)s1 [Example 105, (2S,3R,4R,5S,6R)-2-(4-((5-Ethylthiazol-2-yl)methyl)naphthalen-2-yl)-6-(hydroxymethyl)-tetrahydro-2H-pyran-3,4,5-triol]
0.0226 µM | OC[C@H]1O[C@@H](c2cccc(Cc3ncc(-c4ccco4)s3)c2)[C@H](O)[C@@H](O)[C@@H]1O [Example 111, (2S,3R,4R,5S,6R)-2-(3-((5-(Furan-2-yl)thiazol-2-yl)methyl)phenyl)-6-(hydroxymethyl)-tetrahydro-2H-pyran-3,4,5-triol]
0.000797 µM | OC[C@H]1O[C@@H](c2cc(Cc3ncc(-c4ccco4)s3)c(Cl)cc2O)[C@H](O)[C@@H](O)[C@@H]1O [Example 112, (2S,3R,4R,5S,6R)-2-(4-Chloro-5-((5-(furan-2-yl)thiazol-2-yl)methyl)-2-hydroxyphenyl)-6-(hydroxymethyl)-tetrahydro-2H-pyran-3,4,5-triol]
0.0582 µM | OC[C@H]1O[C@@H](c2cc(Cc3ncc(-c4ccc(F)cc4)s3)c(O)c3ccccc23)[C@H](O)[C@@H](O)[C@@H]1O [Example 123, (2S,3R,4R,5S,6R)-2-(3-((5-(4-Fluorophenyl)thiazol-2-yl)methyl)-4-hydroxynaphthalen-1-yl)-6-(hydroxymethyl)-tetrahydro-2H-pyran-3,4,5-triol]
0.00797 µM | OC[C@H]1O[C@@H](c2cc(Cc3ncc(-c4cccs4)s3)c(O)c3ccccc23)[C@H](O)[C@@H](O)[C@@H]1O [Example 124, (2S,3R,4R,5S,6R)-2-(4-Hydroxy-3-((5-(thiophen-2-yl)thiazol-2-yl)methyl)naphthalen-1-yl)-6-(hydroxymethyl)-tetrahydro-2H-pyran-3,4,5-triol]
0.0306 µM | OC[C@H]1O[C@@H](c2cc(Cc3ncc(-c4ccccc4)s3)c(O)c3ccccc23)[C@H](O)[C@@H](O)[C@@H]1O [Example 125, (2S,3R,4R,5S,6R)-2-(4-Hydroxy-3-((5-phenylthiazol-2-yl)methyl)naphthalen-1-yl)-6-(hydroxymethyl)-tetrahydro-2H-pyran-3,4,5-triol]
0.0673 µM | CCCc1cnc(Cc2cc([C@@H]3O[C@H](CO)[C@@H](O)[C@H](O)[C@H]3O)c3ccccc3c2O)s1 [Example 126, (2S,3R,4R,5S,6R)-2-(4-Hydroxy-3-((5-propylthiazol-2-yl)methyl)naphthalen-1-yl)-6-(hydroxymethyl)-tetrahydro-2H-pyran-3,4,5-triol]
0.0328 µM | CCCCCCCc1cnc(Cc2cc([C@@H]3O[C@H](CO)[C@@H](O)[C@H](O)[C@H]3O)c3ccccc3c2O)s1 [Example 127, (2S,3R,4R,5S,6R)-2-(3-((5-Heptylthiazol-2-yl)methyl)-4-hydroxynaphthalen-1-yl)-6-(hydroxymethyl)-tetrahydro-2H-pyran-3,4,5-triol]
0.116 µM | CCOc1cnc(Cc2cc([C@@H]3O[C@H](CO)[C@@H](O)[C@H](O)[C@H]3O)c3ccccc3c2O)s1 [Example 128, (2S,3R,4R,5S,6R)-2-(3-((5-Ethoxythiazol-2-yl)methyl)-4-hydroxynaphthalen-1-yl)-6-(hydroxymethyl)-tetrahydro-2H-pyran-3,4,5-triol]
0.00875 µM | OC[C@H]1O[C@@H](n2cc(Cc3ncc(-c4ccco4)s3)c3ccccc32)[C@H](O)[C@@H](O)[C@@H]1O [Example 130, (2R,3R,4S,5S,6R)-2-(3-((5-(Furan-2-yl)thiazol-2-yl)methyl)-1H-indol-1-yl)-6-(hydroxymethyl)-tetrahydro-2H-pyran-3,4,5-triol]
0.0138 µM | OC[C@H]1O[C@@H](n2cc(Cc3ncc(-c4cccs4)s3)c3ccccc32)[C@H](O)[C@@H](O)[C@@H]1O [Example 131, (2R,3S,4S,5R,6R)-2-(Hydroxymethyl)-6-(3-((5-(thiophen-2-yl)thiazol-2-yl)methyl)-1H-indol-1-yl)tetrahydro-2H-pyran-3,4,5-triol]
